Assay results: PubChem BioAssay AID1259334 (Broad Institute, 2017)
Activity calls are given as the source filed them. No stated cut-off is given here; in the data, active means AC50 below about 11 µM.

Columns and labels:
[1] = TNFa pathway inhibition counter-screen, B-lineage cells – dose response (AID 1259334); conditions: B cell line, TNFa signaling counterscreen reporter, active compounds read low;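 further: cells stimulated with TNFa after compound preincubation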
[2] = tested on: B cell line, TNFa signaling counterscreen reporter; test: as above

In the case of `CCCC(C)Sc1nc2c([nH]1)c(=S)n(C)c(=O)n2C` (centres undefined), the max activity ([1]; at 3.5 µM) is reported as 58.9% (inactive).

In the case of `Cc1ccccc1-c1ccc(C2[C@@H]3CN(C(=O)Nc4cccc(F)c4)C[C@H]2N3)cc1` (some centres undefined), the max activity ([1]; at 0.0135 µM) is reported as -14.6% (inactive).

In the case of `N#C[C@H]1[C@H](c2ccc(C#CC3CCCCC3)cc2)[C@H](CO)N1C(=O)Nc1ccc(F)cc1`, the max activity ([1]; at 0.0135 µM) is reported as 9.39% (inactive).

In the case of `C[C@@H]1CCCCO[C@@H](CN(C)C(=O)C2CCCCC2)[C@@H](C)CN([C@H](C)CO)C(=O)c2cc(NS(=O)(=O)c3ccccc3)ccc2O1`, the max activity ([1]; at 0.38 µM) is reported as 15.5% (inactive).

With `Cc1noc(C)c1S(=O)(=O)Nc1ccc2c(c1)C(=O)N([C@@H](C)CO)C[C@H](C)[C@@H](CN(C)C(=O)Nc1cccc3ccccc13)OCCCC[C@H](C)O2` the max activity ([1]; at 3.5 µM) was -10.7% (inactive).

For `Cc1ccc(OCCn2cnc3c(N)ncnc32)cc1`, the max activity ([1]; at 3.5 µM) was -11.4% (inactive).

In the case of `O=S(=O)(c1cccc2cnccc12)N1CCNCC1`, the max activity ([1]; at 0.042 µM) is reported as -11.3% (inactive).

With `COc1ccc(CN2CC3(CN(C(=O)Cc4ccccc4)C3)c3c([nH]c4cc(OC)ccc34)[C@H]2CO)cc1` the max activity ([1]; at 1.1 µM) was 10.3% (inactive).

With `Cc1ccc(O)c(N=Nc2ccccc2)n1` the max activity ([1]; at 0.12 µM) was 62% (inactive).

In the case of `O=C(c1ccc(F)cc1)N1C[C@@H]2N[C@H](C1)C2c1ccc(/C=C/c2ccccc2)cc1` (some centres undefined), the max activity ([1]; at 3.5 µM) is reported as 10.7% (inactive) and the AC50 [2] is reported as 7.15 µM.

For `N#C[C@H]1[C@H](c2ccc(C#CC3CCCCC3)cc2)[C@@H](CO)N1C(=O)Nc1ccc(F)cc1`, the max activity ([1]; at 0.135 µM) was 9.41% (inactive).

In the case of `COC(=O)c1ccc2c(=O)[nH]c(COC(=O)c3c(-c4ccccc4)noc3C)nc2c1`, the max activity ([1]; at 3.5 µM) is reported as 8.26% (inactive).

In the case of `Cc1ccc(C(CC(=O)NCc2ccco2)c2ccc(OC(C)C)cc2)cc1` (centres undefined), the max activity ([1]; at 3.5 µM) is reported as 36% (inactive).

With `Cc1ccccc1S(=O)(=O)N1C[C@@H]2N[C@H](C1)C2c1ccc(-c2cccc(C#N)c2)cc1` (some centres undefined) the max activity ([1]; at 10 µM) was 22.9% (inactive).

For `CC(=O)NCCCC(=O)NC(CCC(=O)OCc1ccccc1)C(=O)OCc1ccccc1` (centres undefined), the max activity ([1]; at 3.5 µM) was -20% (inactive).

For `O=C1C(=NO)CCc2ccccc21`, the max activity ([1]; at 3.5 µM) was 35.6% (inactive).

In the case of `O=C(c1ccncc1)N1C[C@@H]2N[C@H](C1)C2c1ccc(/C=C/c2ccccc2)cc1` (some centres undefined), the max activity ([1]; at 0.0135 µM) is reported as 8.12% (inactive).

For `C[C@@H]1CN([C@H](C)CO)C(=O)Cc2cc(NC(=O)Cc3cn(C)c4ccccc34)ccc2O[C@H]1CN(C)Cc1ccc(C(F)(F)F)cc1`, the max activity ([1]; at 11 µM) was -10.7% (inactive).
